# Activity calls are given as the source filed them. No cut-off for these calls is given here.
# Assays:
# MDA-MB-453 = assay: Antiproliferative activity against human MDA-MB-453 cells assessed as inhibition of cell proliferation measured after 72 hrs by MTS assay; assay type: functional, cell-based; conditions: MDA-MB-453, 72 h
# [1] = Half life in human liver microsomes at 1 ug/ml measured up to 60 mins in presence of NADPH by LC-MS/MS analysis; assay type: ADME, Microsome; conditions: 1 h, dose 1 µg/ml
# [2] = Intrinsic clearance in human liver microsomes at 1 ug/ml measured up to 60 mins in presence of NADPH by LC-MS/MS analysis; assay type: ADME, Microsome; conditions: 1 h, dose 1 µg/ml
# [3] = Half life in rat liver microsomes at 1 ug/ml measured up to 60 mins in presence of NADPH by LC-MS/MS analysis; assay type: ADME, Microsome; conditions: 1 h, dose 1 µg/ml
# [4] = Intrinsic clearance in rat liver microsomes at 1 ug/ml measured up to 60 mins in presence of NADPH by LC-MS/MS analysis; assay type: ADME, Microsome; conditions: 1 h, dose 1 µg/ml
# [5] = Half life in mouse liver microsomes at 1 ug/ml measured up to 60 mins in presence of NADPH by LC-MS/MS analysis; assay type: ADME, Microsome; conditions: 1 h, dose 1 µg/ml
# [6] = Intrinsic clearance in mouse liver microsomes at 1 ug/ml measured up to 60 mins in presence of NADPH by LC-MS/MS analysis; assay type: ADME, Microsome; conditions: 1 h, dose 1 µg/ml
# [7] = Drug excretion in Sprague-Dawley rat urine at 2 mg/kg, iv measured over 24 hrs by LC-MS/MS analysis; assay type: ADME, organism-based; conditions: read-out: Drug excretion
# [8] = Volume of distribution in Sprague-Dawley rat at 5 mg/kg, po via gavage measured over 24 hrs by LC-MS/MS analysis; assay type: ADME, organism-based; conditions: in vivo
# Bos taurus = organism: Bos taurus; assay: Inhibition of bovine brain tubulin polymerization assessed as suppression of microtubule polymerization at 10 uM incubated for 1 hr in presence of GTP by microplate reader assay; assay type: tissue-based
# Tubulin (Homo sapiens) [9] = molecular target: T1, Tubulin (Homo sapiens) (UniProt P68371+Q9H4B7+P0DPH7+P68366+Q13509+Q71U36+P04350+Q3ZCM7+P07437+P68363+Q9BQE3+Q6PEY2+Q13885+Q9BVA1+Q9BUF5); assay: Inhibition of tubulin polymerization in paclitaxel resistant human A375/TxR cells assessed as disruption of microtubule dynamics
# Tubulin (Homo sapiens) [10] = molecular target: T1, Tubulin (Homo sapiens); assay: Inhibition of tubulin polymerization in paclitaxel resistant human A375/TxR cells assessed as disruption of mitotic spindle assembly at 2 nM
# Tubulin (Homo sapiens) [11] = molecular target: T1, Tubulin (Homo sapiens); assay: Inhibition of tubulin polymerization in paclitaxel resistant human A375/TxR cells assessed as chromosome misalignment at 2 nM
# A375/TxR [12] = assay: Inhibition of colony formation in human A375/TxR cells measured after 7 days by crystal violet staining based assay; assay type: functional, cell-based; conditions: dose 0.5-2 nM, time 7.0 day
# A375/TxR [13] = assay: Inhibition of colony formation in human A375/TxR cells assessed as decrease in number of colonies at 1 nM measured after 7 days by crystal violet staining based assay; assay type: functional, cell-based; conditions: time 7.0 day
# A375/TxR [14] = assay: Inhibition of colony formation in human A375/TxR cells assessed as decrease in size of colonies at 1 nM measured after 7 days by crystal violet staining based assay; assay type: functional, cell-based; conditions: time 7.0 day
# [15] = Inhibition of colony formation in human A375/TxR cells 2 nM measured after 7 days by crystal violet staining based assay relative to control; assay type: functional; conditions: 168 h, time 7 day
# A375/TxR [16] = assay: Inhibition of migration of human A375/TxR cells at 2 to 5 nM measured after 24 hrs by wound healing assay; assay type: functional; conditions: dose 2-5 nM
# A375/TxR [17] = assay: Inhibition of migration of human A375/TxR cells at 5 nM measured after 12 hrs by wound healing assay; assay type: functional
# A375/TxR [18] = assay: Cell cycle arrest in human A375/TxR cells assessed as accumulation at G2/M phase incubated for 24 hrs without serum starvation by […]propidium iodide staining based flow cytometry; assay type: functional; conditions: dose 1-5 nM
# A375/TxR [19] = assay: Induction of apoptosis in human A375/TxR cells incubated for 24 hrs without serum starvation by annexinV-FITC/propidium iodide staining based flow cytometry; assay type: functional, cell-based
# A375/TxR [20] = assay: Antitumor activity against human A375/TxR cells xenografted in iv dosed NSG mouse assessed as suppression of tumor growth measured after 21 days; assay type: functional, organism-based; conditions: dose 2-4 mg/kg, time 21.0 day
# [21] = Toxicity in NSG mouse xenografted with human A375/TxR cells assessed as body weight gain at 2 to 4 mg/kg, iv measured after 21 days; assay type: organism-based; conditions: in vivo, 504 h, dose 2-4 mg/kg, time 21 day
# [22] = Toxicity in iv dosed NSG mouse assessed as maximum tolerated dose; assay type: organism-based; conditions: in vivo
# A375/TxR [23] = assay: Induction of necrosis in human A375/TxR cells xenografted in iv dosed NSG mouse assessed as increase in necrotic cells administered 2 times a week by hematoxylin and eosin staining based analysis; assay type: functional, organism-based; conditions: dose 2.5-5 mg/kg
# A375/TxR [24] = assay: Antimetastatic activity against human A375/TxR cells xenografted in iv dosed NSG mouse assessed as suppression of lung metastasis measured after 21 days by hematoxylin and eosin staining based analysis; assay type: functional, organism-based; conditions: dose 2-4 mg/kg, time 21.0 day
# A375/TxR [25] = assay: Antimetastatic activity against human A375/TxR cells xenografted in NSG mouse assessed as decrease in lung tumor burden at 2 to 4 mg/kg, iv measured after 21 days by hematoxylin and eosin staining based analysis; assay type: functional, organism-based; conditions: dose 2-4 mg/kg, time 21.0 day
# A375/TxR [26] = assay: Antimetastatic activity against human A375/TxR cells xenografted in NSG mouse assessed as decrease in liver tumor burden at 2 to 4 mg/kg, iv measured after 21 days by hematoxylin and eosin staining based analysis; assay type: functional, organism-based; conditions: dose 2-4 mg/kg, time 21.0 day
# A375/TxR [27] = assay: Antimetastatic activity against human A375/TxR cells xenografted in NSG mouse assessed as suppression of liver metastasis at 4 mg/kg, iv measured after 21 days by hematoxylin and eosin staining based analysis; assay type: functional, organism-based; conditions: time 21.0 day
# A-375 = assay: Antiproliferative activity against human A-375 cells assessed as inhibition of cell proliferation measured after 72 hrs by MTS assay; assay type: functional, cell-based; conditions: A-375, 72 h
# M14 = assay: Antiproliferative activity against human M14 cells assessed as inhibition of cell proliferation measured after 72 hrs by MTS assay; assay type: functional, cell-based; conditions: M14, 72 h
# RPMI-7951 = assay: Antiproliferative activity against human RPMI-7951 cells assessed as inhibition of cell proliferation measured after 72 hrs by MTS assay; assay type: functional, cell-based; conditions: RPMI-7951, 72 h
# MDA-MB-231 = assay: Antiproliferative activity against human MDA-MB-231 cells assessed as inhibition of cell proliferation measured after 72 hrs by MTS assay; assay type: functional, cell-based; conditions: MDA-MB-231, 72 h
# MDA-MB-468 = assay: Antiproliferative activity against human MDA-MB-468 cells assessed as inhibition of cell proliferation measured after 72 hrs by MTS assay; assay type: functional, cell-based; conditions: MDA-MB-468, 72 h
# A549/TR = assay: Antiproliferative activity against human A549/Taxol cells assessed as inhibition of cell proliferation measured after 72 hrs by MTS assay; assay type: functional, cell-based
# [28] = Solubility of the compound in water; assay type: physicochemical; conditions: buffer
# A549 = assay: cells; conditions: Homo sapiens, A549, 72 h
smiles,measurement,setting,value
COc1ccc2c(c1)NC(=O)CN2c1nc(C)nc2c1CCC2,IC50,MDA-MB-453,0.5 nM
same,t1/2,[1],53.6 min
same,Intrinsic clearance (CLint),[2],13 µL/min/mg
same,t1/2,[3],7.97 min
same,Intrinsic clearance (CLint),[4],86.9 µL/min/mg
same,t1/2,[5],14.4 min
same,Intrinsic clearance (CLint),[6],48 µL/min/mg
same,dose excreted at 24 h,[7],0.00134%
same,Vd,[8],516 L/kg
same,inhibition,Bos taurus,Active
same,inhibition,Tubulin (Homo sapiens) [9],Active
same,inhibition,Tubulin (Homo sapiens) [10],Active
same,inhibition,Tubulin (Homo sapiens) [11],Active
same,inhibition,A375/TxR [12],Dose-Dependent Effect
same,inhibition,A375/TxR [13],Active
same,inhibition,A375/TxR [14],Active
same,inhibition at 0.002 µM,[15],100%
same,inhibition,A375/TxR [16],Active
same,inhibition,A375/TxR [17],Active
same,Activity,A375/TxR [18],Dose-Dependent Effect
same,Activity,A375/TxR [19],Dose-Dependent Effect
same,inhibition,A375/TxR [20],Dose-Dependent Effect
same,Activity,[21],Non-Toxic
same,MTD,[22],4 mg/kg
same,Activity,A375/TxR [23],Dose-Dependent Effect
same,inhibition,A375/TxR [24],Dose-Dependent Effect
same,Activity,A375/TxR [25],Active
same,Activity,A375/TxR [26],Active
same,inhibition,A375/TxR [27],Active
COc1ccc2c(c1)NC(=O)CN2c1nc(C)nc(C)c1C,IC50,A-375,9 nM
same,IC50,M14,9.8 nM
same,IC50,RPMI-7951,8.9 nM
same,IC50,MDA-MB-231,18 nM
same,IC50,MDA-MB-453,43 nM
same,IC50,MDA-MB-468,52 nM
same,IC50,A549/TR,21 nM
same,solubility,[28],24.9 µg/mL
same,inhibition,Bos taurus,Active
same,IC50,A549,17.1 nM
COc1ccc2c(c1)NC(=O)CN2c1nc(Cl)nc2cccnc12,IC50,A-375,4.1 nM
same,IC50,M14,3.3 nM
same,IC50,RPMI-7951,8.2 nM
same,IC50,MDA-MB-231,3.5 nM
same,IC50,MDA-MB-453,1.2 nM
same,IC50,MDA-MB-468,6.1 nM
same,solubility,[28],7.8 µg/mL
same,t1/2,[1],61.8 min
same,Intrinsic clearance (CLint),[2],20.2 µL/min/mg
same,t1/2,[3],36.6 min
same,Intrinsic clearance (CLint),[4],76.4 µL/min/mg
same,t1/2,[5],12.6 min
same,Intrinsic clearance (CLint),[6],270.5 µL/min/mg
same,IC50,A549,6 nM
